Reference: ChEMBL document CHEMBL3627713, “Triazole linked mono carbonyl curcumin-isatin bifunctional hybrids as novel anti tubulin agents: Design, synthesis, biological evaluation and molecular modeling studies” (Bioorg Med Chem, 2015)

tested on: HCT-116; test: Cytotoxicity against human HCT116 cells assessed as growth inhibition at 50 uM after 48 hrs by sulforhodamine B assay relative to control; type: functional; settings: HCT-116, 48 h, read-out: GI

Compound	inhibition of growth at 50 µM
COc1cc(/C=C/C(=O)/C=C/c2ccccc2)ccc1OCc1cn(CCN2C(=O)C(=O)c3ccccc32)nn1	71%
COc1cc(/C=C/C(=O)/C=C/c2cccc3ccccc23)ccc1OCc1cn(CCN2C(=O)C(=O)c3ccccc32)nn1	89%
COc1ccc(/C=C/C(=O)/C=C/c2ccc(OCc3cn(CCN4C(=O)C(=O)c5ccccc54)nn3)c(OC)c2)cc1OC	90%
COc1cc(/C=C/C(=O)/C=C/c2cc(OC)c(OC)c(OC)c2)ccc1OCc1cn(CCN2C(=O)C(=O)c3cc(Br)ccc32)nn1	75%
COc1cccc(/C=C/C(=O)/C=C/c2ccc(OCc3cn(CCN4C(=O)C(=O)c5ccccc54)nn3)c(OC)c2)c1	77%

tested on: HCT-116; test: Cytotoxicity against human HCT116 cells assessed as growth inhibition after 48 hrs by sulforhodamine B assay; type: functional, cell-based; settings: HCT-116, 48 h

Compound	IC50
COc1cc(/C=C/C(=O)/C=C/c2ccccc2)ccc1OCc1cn(CCN2C(=O)C(=O)c3ccccc32)nn1	5.16 µM
COc1cc(/C=C/C(=O)/C=C/c2cccc3ccccc23)ccc1OCc1cn(CCN2C(=O)C(=O)c3ccccc32)nn1	4.79 µM
COc1ccc(/C=C/C(=O)/C=C/c2ccc(OCc3cn(CCN4C(=O)C(=O)c5ccccc54)nn3)c(OC)c2)cc1OC	2.67 µM
COc1cc(/C=C/C(=O)/C=C/c2cc(OC)c(OC)c(OC)c2)ccc1OCc1cn(CCN2C(=O)C(=O)c3cc(Br)ccc32)nn1	2.92 µM
COc1cccc(/C=C/C(=O)/C=C/c2ccc(OCc3cn(CCN4C(=O)C(=O)c5ccccc54)nn3)c(OC)c2)c1	3.92 µM

tested on: A549; test: Cytotoxicity against human A549 cells assessed as growth inhibition at 50 uM after 48 hrs by sulforhodamine B assay relative to control; type: functional; settings: A549, 48 h, read-out: GI

Compound	inhibition of growth at 50 µM
COc1cc(/C=C/C(=O)/C=C/c2ccccc2)ccc1OCc1cn(CCN2C(=O)C(=O)c3ccccc32)nn1	10%
COc1cc(/C=C/C(=O)/C=C/c2cccc3ccccc23)ccc1OCc1cn(CCN2C(=O)C(=O)c3ccccc32)nn1	10%
COc1ccc(/C=C/C(=O)/C=C/c2ccc(OCc3cn(CCN4C(=O)C(=O)c5ccccc54)nn3)c(OC)c2)cc1OC	19%
COc1cc(/C=C/C(=O)/C=C/c2cc(OC)c(OC)c(OC)c2)ccc1OCc1cn(CCN2C(=O)C(=O)c3cc(Br)ccc32)nn1	13%
COc1cccc(/C=C/C(=O)/C=C/c2ccc(OCc3cn(CCN4C(=O)C(=O)c5ccccc54)nn3)c(OC)c2)c1	13%

tested on: HeLa; test: Cytotoxicity against human HeLa cells assessed as growth inhibition at 50 uM after 48 hrs by sulforhodamine B assay relative to control; type: functional; settings: read-out: GI

Compound	inhibition of growth at 50 µM
COc1cc(/C=C/C(=O)/C=C/c2ccccc2)ccc1OCc1cn(CCN2C(=O)C(=O)c3ccccc32)nn1	12%
COc1cc(/C=C/C(=O)/C=C/c2cccc3ccccc23)ccc1OCc1cn(CCN2C(=O)C(=O)c3ccccc32)nn1	10%
COc1ccc(/C=C/C(=O)/C=C/c2ccc(OCc3cn(CCN4C(=O)C(=O)c5ccccc54)nn3)c(OC)c2)cc1OC	18%
COc1cc(/C=C/C(=O)/C=C/c2cc(OC)c(OC)c(OC)c2)ccc1OCc1cn(CCN2C(=O)C(=O)c3cc(Br)ccc32)nn1	15%
COc1cccc(/C=C/C(=O)/C=C/c2ccc(OCc3cn(CCN4C(=O)C(=O)c5ccccc54)nn3)c(OC)c2)c1	14%

tested on: not listed separately; test: Cytotoxicity against human MIAPaCa2 cells assessed as growth inhibition at 50 uM after 48 hrs by sulforhodamine B assay relative to control; type: functional; settings: MIA PaCa-2, 48 h, read-out: GI

Compound	inhibition of growth at 50 µM
COc1cc(/C=C/C(=O)/C=C/c2ccccc2)ccc1OCc1cn(CCN2C(=O)C(=O)c3ccccc32)nn1	20%
COc1cc(/C=C/C(=O)/C=C/c2cccc3ccccc23)ccc1OCc1cn(CCN2C(=O)C(=O)c3ccccc32)nn1	11%
COc1ccc(/C=C/C(=O)/C=C/c2ccc(OCc3cn(CCN4C(=O)C(=O)c5ccccc54)nn3)c(OC)c2)cc1OC	21%
COc1cc(/C=C/C(=O)/C=C/c2cc(OC)c(OC)c(OC)c2)ccc1OCc1cn(CCN2C(=O)C(=O)c3cc(Br)ccc32)nn1	15%
COc1cccc(/C=C/C(=O)/C=C/c2ccc(OCc3cn(CCN4C(=O)C(=O)c5ccccc54)nn3)c(OC)c2)c1	15%

tested on: THP-1; test: Cytotoxicity against human THP1 cells assessed as growth inhibition at 50 uM after 48 hrs by sulforhodamine B assay relative to control; type: functional; settings: THP-1, 48 h, read-out: GI

Compound	inhibition of growth at 50 µM
COc1cc(/C=C/C(=O)/C=C/c2ccccc2)ccc1OCc1cn(CCN2C(=O)C(=O)c3ccccc32)nn1	66%
COc1cc(/C=C/C(=O)/C=C/c2cccc3ccccc23)ccc1OCc1cn(CCN2C(=O)C(=O)c3ccccc32)nn1	83%
COc1ccc(/C=C/C(=O)/C=C/c2ccc(OCc3cn(CCN4C(=O)C(=O)c5ccccc54)nn3)c(OC)c2)cc1OC	82%
COc1cc(/C=C/C(=O)/C=C/c2cc(OC)c(OC)c(OC)c2)ccc1OCc1cn(CCN2C(=O)C(=O)c3cc(Br)ccc32)nn1	73%
COc1cccc(/C=C/C(=O)/C=C/c2ccc(OCc3cn(CCN4C(=O)C(=O)c5ccccc54)nn3)c(OC)c2)c1	70%

tested on: THP-1; test: Cytotoxicity against human THP1 cells assessed as growth inhibition after 48 hrs by sulforhodamine B assay; type: functional, cell-based; settings: THP-1, 48 h

Compound	IC50
COc1cc(/C=C/C(=O)/C=C/c2ccccc2)ccc1OCc1cn(CCN2C(=O)C(=O)c3ccccc32)nn1	7.64 µM
COc1cc(/C=C/C(=O)/C=C/c2cccc3ccccc23)ccc1OCc1cn(CCN2C(=O)C(=O)c3ccccc32)nn1	6.15 µM
COc1ccc(/C=C/C(=O)/C=C/c2ccc(OCc3cn(CCN4C(=O)C(=O)c5ccccc54)nn3)c(OC)c2)cc1OC	4.31 µM
COc1cc(/C=C/C(=O)/C=C/c2cc(OC)c(OC)c(OC)c2)ccc1OCc1cn(CCN2C(=O)C(=O)c3cc(Br)ccc32)nn1	3.14 µM
COc1cccc(/C=C/C(=O)/C=C/c2ccc(OCc3cn(CCN4C(=O)C(=O)c5ccccc54)nn3)c(OC)c2)c1	4.41 µM

target: Tubulin; test: Inhibition of tubulin (unknown origin) polymerization after 1 hr by ELISA plate reader analysis; type: protein-complex assay, Homo sapiens; settings: not given

IC50	Compound
7.16 µM	COc1cc(/C=C/C(=O)/C=C/c2cccc3ccccc23)ccc1OCc1cn(CCN2C(=O)C(=O)c3ccccc32)nn1
3.97 µM	COc1ccc(/C=C/C(=O)/C=C/c2ccc(OCc3cn(CCN4C(=O)C(=O)c5ccccc54)nn3)c(OC)c2)cc1OC

tested on: PC-3; test: Cytotoxicity against human PC3 cells assessed as growth inhibition after 48 hrs by sulforhodamine B assay; type: functional, cell-based; settings: PC-3, 48 h

Compound	IC50
COc1cc(/C=C/C(=O)/C=C/c2ccccc2)ccc1OCc1cn(CCN2C(=O)C(=O)c3ccccc32)nn1	9.56 µM
COc1cc(/C=C/C(=O)/C=C/c2cccc3ccccc23)ccc1OCc1cn(CCN2C(=O)C(=O)c3ccccc32)nn1	8.54 µM
COc1ccc(/C=C/C(=O)/C=C/c2ccc(OCc3cn(CCN4C(=O)C(=O)c5ccccc54)nn3)c(OC)c2)cc1OC	7.64 µM
COc1cc(/C=C/C(=O)/C=C/c2cc(OC)c(OC)c(OC)c2)ccc1OCc1cn(CCN2C(=O)C(=O)c3cc(Br)ccc32)nn1	6.44 µM
COc1cccc(/C=C/C(=O)/C=C/c2ccc(OCc3cn(CCN4C(=O)C(=O)c5ccccc54)nn3)c(OC)c2)c1	9.16 µM

tested on: COLO 205; test: Cytotoxicity against human COLO205 cells assessed as growth inhibition at 50 uM after 48 hrs by sulforhodamine B assay relative to control; type: functional; settings: COLO 205, 48 h, read-out: GI

Compound	inhibition of growth at 50 µM
COc1cc(/C=C/C(=O)/C=C/c2ccccc2)ccc1OCc1cn(CCN2C(=O)C(=O)c3ccccc32)nn1	64%
COc1cc(/C=C/C(=O)/C=C/c2cccc3ccccc23)ccc1OCc1cn(CCN2C(=O)C(=O)c3ccccc32)nn1	80%
COc1ccc(/C=C/C(=O)/C=C/c2ccc(OCc3cn(CCN4C(=O)C(=O)c5ccccc54)nn3)c(OC)c2)cc1OC	80%
COc1cc(/C=C/C(=O)/C=C/c2cc(OC)c(OC)c(OC)c2)ccc1OCc1cn(CCN2C(=O)C(=O)c3cc(Br)ccc32)nn1	70%
COc1cccc(/C=C/C(=O)/C=C/c2ccc(OCc3cn(CCN4C(=O)C(=O)c5ccccc54)nn3)c(OC)c2)c1	69%

tested on: PC-3; test: Cytotoxicity against human PC3 cells assessed as growth inhibition at 50 uM after 48 hrs by sulforhodamine B assay relative to control; type: functional; settings: PC-3, 48 h, read-out: GI

Compound	inhibition of growth at 50 µM
COc1cc(/C=C/C(=O)/C=C/c2ccccc2)ccc1OCc1cn(CCN2C(=O)C(=O)c3ccccc32)nn1	60%
COc1cc(/C=C/C(=O)/C=C/c2cccc3ccccc23)ccc1OCc1cn(CCN2C(=O)C(=O)c3ccccc32)nn1	77%
COc1ccc(/C=C/C(=O)/C=C/c2ccc(OCc3cn(CCN4C(=O)C(=O)c5ccccc54)nn3)c(OC)c2)cc1OC	79%
COc1cc(/C=C/C(=O)/C=C/c2cc(OC)c(OC)c(OC)c2)ccc1OCc1cn(CCN2C(=O)C(=O)c3cc(Br)ccc32)nn1	69%
COc1cccc(/C=C/C(=O)/C=C/c2ccc(OCc3cn(CCN4C(=O)C(=O)c5ccccc54)nn3)c(OC)c2)c1	66%

tested on: CAKI-1; test: Cytotoxicity against human Caki1 cells assessed as growth inhibition at 50 uM after 48 hrs by sulforhodamine B assay relative to control; type: functional; settings: CAKI-1, 48 h, read-out: GI

Compound	inhibition of growth at 50 µM
COc1cc(/C=C/C(=O)/C=C/c2ccccc2)ccc1OCc1cn(CCN2C(=O)C(=O)c3ccccc32)nn1	15%
COc1cc(/C=C/C(=O)/C=C/c2cccc3ccccc23)ccc1OCc1cn(CCN2C(=O)C(=O)c3ccccc32)nn1	14%
COc1ccc(/C=C/C(=O)/C=C/c2ccc(OCc3cn(CCN4C(=O)C(=O)c5ccccc54)nn3)c(OC)c2)cc1OC	22%
COc1cc(/C=C/C(=O)/C=C/c2cc(OC)c(OC)c(OC)c2)ccc1OCc1cn(CCN2C(=O)C(=O)c3cc(Br)ccc32)nn1	12%
COc1cccc(/C=C/C(=O)/C=C/c2ccc(OCc3cn(CCN4C(=O)C(=O)c5ccccc54)nn3)c(OC)c2)c1	17%

tested on: COLO 205; test: Cytotoxicity against human COLO205 cells assessed as growth inhibition after 48 hrs by sulforhodamine B assay; type: functional, cell-based; settings: COLO 205, 48 h

Compound	IC50
COc1cc(/C=C/C(=O)/C=C/c2ccccc2)ccc1OCc1cn(CCN2C(=O)C(=O)c3ccccc32)nn1	8.28 µM
COc1cc(/C=C/C(=O)/C=C/c2cccc3ccccc23)ccc1OCc1cn(CCN2C(=O)C(=O)c3ccccc32)nn1	7.99 µM
COc1ccc(/C=C/C(=O)/C=C/c2ccc(OCc3cn(CCN4C(=O)C(=O)c5ccccc54)nn3)c(OC)c2)cc1OC	5.78 µM
COc1cc(/C=C/C(=O)/C=C/c2cc(OC)c(OC)c(OC)c2)ccc1OCc1cn(CCN2C(=O)C(=O)c3cc(Br)ccc32)nn1	5.29 µM
COc1cccc(/C=C/C(=O)/C=C/c2ccc(OCc3cn(CCN4C(=O)C(=O)c5ccccc54)nn3)c(OC)c2)c1	7.34 µM
